Laboratory results reported in paper PMC6554660 (Frontiers in Pharmacology, 2019).
“Also recorded” adds a separate entry of the source. Where a SMILES comes first, the peptide text is derived from it. Bridges are numbered along the chain shown (N, C = ends).

How the values were obtained:
rat α3β2 nAChR = rat α3β2 nAChR (Rattus norvegicus, UniProt P04757+P12390); experiment: cell-based
rat α7 nAChR = rat α7 nAChR (Rattus norvegicus, UniProt Q05941); experiment: cell-based; format: cell-based
[1] = in vivo; cited from earlier work

Chain of rat α7 nAChR (Q05941 23-502 limits assumed): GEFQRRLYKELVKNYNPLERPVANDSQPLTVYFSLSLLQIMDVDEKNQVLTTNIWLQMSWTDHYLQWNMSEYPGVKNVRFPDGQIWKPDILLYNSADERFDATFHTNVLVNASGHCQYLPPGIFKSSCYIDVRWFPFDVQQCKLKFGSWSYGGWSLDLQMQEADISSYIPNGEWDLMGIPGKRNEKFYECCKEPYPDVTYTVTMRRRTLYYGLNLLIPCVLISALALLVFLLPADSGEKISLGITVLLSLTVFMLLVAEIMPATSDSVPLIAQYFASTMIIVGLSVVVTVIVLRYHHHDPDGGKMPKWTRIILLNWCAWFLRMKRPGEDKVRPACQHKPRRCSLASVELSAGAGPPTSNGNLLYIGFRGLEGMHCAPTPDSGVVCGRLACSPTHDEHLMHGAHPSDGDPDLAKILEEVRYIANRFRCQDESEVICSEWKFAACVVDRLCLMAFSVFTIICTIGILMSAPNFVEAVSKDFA
Chain of rat α3β2 nAChR (P04757 26-499 limits assumed): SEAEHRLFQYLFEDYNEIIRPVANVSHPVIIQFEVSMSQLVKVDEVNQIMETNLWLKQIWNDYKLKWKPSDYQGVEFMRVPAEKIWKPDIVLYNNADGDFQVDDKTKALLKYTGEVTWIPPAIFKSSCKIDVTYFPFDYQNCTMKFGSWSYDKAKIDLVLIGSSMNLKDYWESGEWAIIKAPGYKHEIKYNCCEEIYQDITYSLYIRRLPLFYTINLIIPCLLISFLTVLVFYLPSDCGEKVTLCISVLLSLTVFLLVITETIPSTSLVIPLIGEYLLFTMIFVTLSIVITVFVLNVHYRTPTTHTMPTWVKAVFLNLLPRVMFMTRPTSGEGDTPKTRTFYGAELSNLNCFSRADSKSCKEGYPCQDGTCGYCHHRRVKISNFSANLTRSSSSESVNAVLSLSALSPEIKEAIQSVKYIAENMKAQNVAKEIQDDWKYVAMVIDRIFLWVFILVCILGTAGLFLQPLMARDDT
Chain of rat α3β2 nAChR (P12390 25-500 limits assumed): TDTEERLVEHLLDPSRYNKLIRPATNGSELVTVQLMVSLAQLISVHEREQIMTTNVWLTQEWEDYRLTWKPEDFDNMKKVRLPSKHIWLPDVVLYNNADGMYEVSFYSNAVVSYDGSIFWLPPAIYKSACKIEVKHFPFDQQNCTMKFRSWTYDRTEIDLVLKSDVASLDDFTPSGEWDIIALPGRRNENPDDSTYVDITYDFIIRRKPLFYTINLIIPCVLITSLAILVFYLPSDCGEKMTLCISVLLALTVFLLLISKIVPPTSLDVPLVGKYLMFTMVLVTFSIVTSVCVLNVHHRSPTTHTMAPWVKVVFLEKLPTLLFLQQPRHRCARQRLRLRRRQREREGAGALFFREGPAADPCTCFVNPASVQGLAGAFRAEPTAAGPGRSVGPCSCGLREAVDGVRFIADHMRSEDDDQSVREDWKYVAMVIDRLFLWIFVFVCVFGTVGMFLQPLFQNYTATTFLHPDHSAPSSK

Question: With `CC[C@H](C)[C@@H]1NC(=O)[C@@H]2CSSC[C@H](NC(=O)[C@@H](NC(=O)CN)CSSC[C@@H](C(=O)O)NC(=O)[C@H](CC(C)C)NC(=O)[C@H](CC(=O)O)NC(=O)[C@@H]3CCCN3C(=O)[C@H](CC(N)=O)NC(=O)[C@H](CC(N)=O)NC(=O)[C@H](C)NC1=O)C(=O)N[C@@H](CO)C(=O)N[C@@H](CC(N)=O)C(=O)N1CCC[C@H]1C(=O)N1CCC[C@H]1C(=O)N2` [Recombinant [R5N]TxIA] (H-GCCSNPPCIANNPDLC-OH; disulfide 2-16, 3-8) as the compound, how does the IC50 (rat α3β2 nAChR) read?
Answer: 1.83 µM

Question: What about the “nH (Hill coefficient)” value (rat α3β2 nAChR) of the same compound?
Answer: −1.36

Question: And the “activity at α7 nAChR (in words)” value (rat α7 nAChR)?
Answer: but not when an asparagine residue was introduced in this position

Question: Which analgesic properties [1] does the source give for Vc1.1 here?
Answer: potent analgesic properties

Question: Which IC50 (rat α3β2 nAChR) does the source give for `CC[C@H](C)[C@@H]1NC(=O)[C@@H]2CSSC[C@H](NC(=O)CN)C(=O)N[C@@H](CSSC[C@@H](C(N)=O)NC(=O)[C@H](CC(C)C)NC(=O)[C@H](CC(=O)O)NC(=O)[C@@H]3CCCN3C(=O)[C@H](CC(N)=O)NC(=O)[C@H](CC(N)=O)NC(=O)[C@H](C)NC1=O)C(=O)N[C@@H](CO)C(=O)N[C@@H](CCCNC(=N)N)C(=O)N1CCC[C@H]1C(=O)N1CCC[C@H]1C(=O)N2` [Synthetic TxIA, reference compound] here?
Answer: 0.0046 µM

Question: And the IC50 (rat α7 nAChR)?
Answer: 1.81 µM

Question: For `CC[C@H](C)[C@@H]1NC(=O)[C@@H]2CSSC[C@H](NC(=O)[C@@H](NC(=O)CN)CSSC[C@@H](C(=O)O)NC(=O)[C@H](CC(C)C)NC(=O)[C@H](CC(=O)O)NC(=O)[C@@H]3CCCN3C(=O)[C@H](CC(N)=O)NC(=O)[C@H](CC(N)=O)NC(=O)[C@H](C)NC1=O)C(=O)N[C@@H](CO)C(=O)N[C@@H](CC(=O)O)C(=O)N1CCC[C@H]1C(=O)N1CCC[C@H]1C(=O)N2` [Recombinant [R5D]TxIA] (H-GCCSDPPCIANNPDLC-OH; disulfide 2-16, 3-8), which IC50 (rat α3β2 nAChR) is on record?
Answer: 3.54 µM

Question: And the “nH (Hill coefficient)” value (rat α3β2 nAChR)?
Answer: −1.38

Question: What about the IC50 (rat α7 nAChR) of the same compound?
Answer: 2.91 µM

Question: And the “activity at α7 nAChR (in words)” value (rat α7 nAChR)?
Answer: almost completely reversed; also recorded: could rescue the activity at the α7 nAChR at a similar level to that of globular TxIA

Question: And the “nH (Hill coefficient)” value (rat α7 nAChR)?
Answer: −1.24

Question: With `CC[C@H](C)[C@@H]1NC(=O)[C@@H]2CSSC[C@H](NC(=O)[C@@H](NC(=O)CN)CSSC[C@@H](C(=O)O)NC(=O)[C@H](CC(C)C)NC(=O)[C@H](CC(=O)O)NC(=O)[C@@H]3CCCN3C(=O)[C@H](CC(N)=O)NC(=O)[C@H](CC(N)=O)NC(=O)[C@H](C)NC1=O)C(=O)N[C@@H](CO)C(=O)N[C@@H](CCCNC(=N)N)C(=O)N1CCC[C@H]1C(=O)N1CCC[C@H]1C(=O)N2` [Recombinant TxIA] as the compound, how does the “nH (Hill coefficient)” value (rat α3β2 nAChR) read?
Answer: −1.54
